This is an account of results in patent EP1137632B1, “THIOUREA INHIBITORS OF HERPES VIRUSES” (Wyeth, priority 1998, dated 2000).

≈ marks a conversion by molar mass, not a printed value. Read-outs that look alike come from different tables or passages of the source.

One assay relates to VZV strain Ellen. Briefly: VZV antiviral (ELISA) assay in human foreskin fibroblast cells. The format is cell-based, varicella-zoster virus. Conditions: for inhibition at 10 µg/mL: Human alphaherpesvirus 3, Fibroblast, read-out: % inhibition 10 ug/ml VZV; for IC50: read-out: IC50 (ug/ml) VZV. In a few lines:
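HFF cells infected with VZV Ellen (MOI <0.1) overnight, then plated at 3.5x10^4 cells/well with compound in DMEM + 2% FBS for three days at 37°C, 5% CO2. Viral glycoprotein II quantified by ELISA with β-galactosidase-linked secondary and 4-methylumbelliferyl-galactoside fluorescence (365/450 nm); IC50 versus no-compound fluorescence.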

A further assay has as its system HSV-1. Briefly: HSV antiviral (ELISA) assay in Vero cells. Conditions: read-out: IC50 (ug/ml) HSV. The format is cell-based, herpes simplex virus type 1. In a few lines: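 Vero cells in DMEM/2% FBS treated with compound 30 min before HSV-1 infection (MOI 0.006), ~24 h at 37 °C. Viral glycoprotein D measured by cell ELISA with β-galactosidase-linked secondary and fluorogenic methylumbelliferyl galactoside (ex 365/em 450 nm); IC50 versus no-compound fluorescence.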
(In general: An ELISA detects its analyte on a solid surface through an enzyme-linked reagent.)

The test system of assay [1] is HCMV recombinant mutant virus. Nature of the assay: microbe, parasite or virus in culture. The format is cell-based, human cytomegalovirus. Particulars: Human betaherpesvirus 5, read-out: IC50 (ug/ml) HCMV. In a few lines:
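Human foreskin fibroblasts were infected with a recombinant HCMV carrying a beta-glucuronidase gene under a viral promoter, in the presence of compound. At 96 h post-infection, lysate beta-glucuronidase activity was read colorimetrically or fluorometrically as a replication marker. IC50 came from the compound dose range.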

[2] abbreviates: Human alphaherpesvirus 3, VZV strain Ellen in HFF cells.
Setting [3] is: Human alphaherpesvirus 1, HSV-1 in Vero cells.

For `O=C(Nc1ccc(NC(=S)NNc2cccc(Cl)c2)cc1)c1ccccc1F` [Example 529, N-[4-({[2-(3-Chloro-phenyl)-hydrazino]-thioxomethyl}-amino)-phenyl]-2-fluoro-benzamide], the inhibition at 10 µg/mL in the assay on VZV strain Ellen came to 23%. For the same compound, the IC50 in the assay on VZV strain Ellen (setting [2]) was 9 µg/mL (≈ 21.7 µM); in the assay with HSV-1 (setting [3]), 1 µg/mL (≈ 2.41 µM); in assay [1], 8.5 µg/mL (≈ 20.5 µM).

For `CC(NC(=S)Nc1ccc(NC(=O)c2ccccc2F)c(C#N)c1)c1ccc(F)cc1` (stereo not shown) [Example 1040, N-(2-Cyano-4-{3-[1-(4-fluoro-phenyl)-ethyl]-thioureido}-phenyl)-2-fluoro-benzamide], the IC50 with VZV strain Ellen (setting [2]) is 0.05 µg/mL (≈ 0.115 µM); in the assay with HSV-1 (setting [3]) it was above 10 µg/mL; in assay [1], above 10 µg/mL.

For the compound `CC(NC(=S)Nc1ccc(NC(=O)c2ccccc2F)c(OCC#N)c1)c1ccc(F)cc1` (stereo not shown) [Example 1062, 2-Fluoro-N-[4-{3-[1-(4-fluoro-phenyl)-ethyl]-thioureido}-2-(2-nitrilo-ethoxy)-phenyl]-benzamide], the IC50 in the assay with VZV strain Ellen (setting [2]) is 0.33 µg/mL (≈ 0.707 µM); with HSV-1 (setting [3]), above 10 µg/mL; in assay [1], 6 µg/mL (≈ 12.9 µM).

For the compound `CCOc1cc(NC(=S)NC(C)c2ccc(C#N)cc2)ccc1NC(=O)c1ccccc1F` (stereo not shown) [Example 1061, N-(4-{3-[1-(4-Cyano-phenyl)-ethyl]-thioureido}-2-ethoxy-phenyl)-2-fluoro-benzamide], the IC50 is 0.64 µg/mL (≈ 1.38 µM) with VZV strain Ellen (setting [2]), above 10 µg/mL with HSV-1 (setting [3]) and 7.6 µg/mL (≈ 16.4 µM) in assay [1].

Turning to `CC(NC(=S)Nc1ccc(NC(=O)c2ccccc2F)c(-c2ccccc2)c1)c1ccc(F)cc1` (stereo not shown) [Example 1065, 2-Fluoro-N-(5-{3-[1-(4-fluoro-phenyl)-ethyl)-thioureido}-biphenyl-2-yl)-benzamide], the IC50 in the assay with VZV strain Ellen (Human alphaherpesvirus 3, HFF) is 0.33 µg/mL (≈ 0.677 µM); in the assay with HSV-1 (Human alphaherpesvirus 1, Vero), 4.9 µg/mL (≈ 10 µM); in assay [1], 8.1 µg/mL (≈ 16.6 µM).

For the compound `COc1cc(OC)c(NC(=S)Nc2cc(C)c(NC(=O)c3ccccc3F)cc2Cl)cc1Cl` [Example 327, N-{5-Chloro-4-[3-(5-chloro-2,4-dimethoxy-phenyl)-thioureido]-2-methyl-phenyl}-2-fluoro-benzamide], the inhibition at 10 µg/mL with VZV strain Ellen is 42%. For the same compound, the IC50 (with VZV strain Ellen (setting [2]); in the assay on HSV-1 (setting [3]); in assay [1]) was above 10 µg/mL throughout.

Consider `Cc1cc(NC(=S)NC(C)c2ccc(Br)cc2)ccc1NC(=O)c1ccccc1F` (stereo not shown) [Example 1046, N-(4-{3-[1-(4-Bromo-phenyl)-ethyl]-thioureido}-2-methyl-phenyl)-2-fluoro-benzamide], for which the IC50 in the assay on VZV strain Ellen (setting [2]) amounted to 0.057 µg/mL (≈ 0.117 µM); in the assay with HSV-1 (setting [3]), 6.3 µg/mL (≈ 13 µM); in assay [1], 2.8 µg/mL (≈ 5.76 µM).

Consider `COc1cc(OC)c(NC(=S)Nc2ccc(NC(=O)c3ccccc3F)c(C#N)c2)cc1Cl` [Example 277, N-{4-[3-(5-Chloro-2,4-dimethoxy-phenyl)-thioureido]-2-cyano-phenyl}-2-fluoro-benzamide], for which the inhibition at 10 µg/mL in the assay on VZV strain Ellen worked out at 0%. In addition, the IC50 (with VZV strain Ellen (setting [2]); in the assay with HSV-1 (setting [3]); in assay [1]) was above 10 µg/mL in each case.

For the compound `CC(NC(=S)Nc1ccc(NC(=O)c2cc3ccccc3o2)c(C(F)(F)F)c1)c1ccc(F)cc1` (stereo not shown) [Example 1067, Benzofuran-2-carboxylic acid (4-{3-[1-(4-fluoro-phenyl)-ethyl]-thioureido}-2-trifluoromethyl-phenyl)-amide], the values for the IC50 (with VZV strain Ellen (setting [2]); in the assay on HSV-1 (setting [3]); in assay [1]) were 0.26 µg/mL (≈ 0.518 µM), 3.8 µg/mL (≈ 7.58 µM) and 3.3 µg/mL (≈ 6.58 µM), respectively.

`CCOc1cc(NC(=S)NC(C)c2ccc(F)cc2)ccc1NC(=O)c1ccccc1F` (stereo not shown) [Example 1060, N-(2-Ethoxy-4-{3-[1-(4-fluoro-phenyl)-ethyl]-thioureido}-phenyl)-2-fluoro-benzamide]: the IC50 was 0.26 µg/mL (≈ 0.571 µM) in the assay on VZV strain Ellen (setting [2]), above 10 µg/mL in the assay with HSV-1 (setting [3]) and above 10 µg/mL in assay [1].

As for `COc1cc(NC(=S)NC(C)c2ccc(F)cc2)ccc1NC(=O)c1ccccc1F` (stereo not shown) [Example 1064, 2-Fluoro-N-(4-{3-[1-(4-fluoro-phenyl)-ethyl]-thioureido}-2-methoxy-phenyl)-benzamide], the IC50 in the assay on VZV strain Ellen (setting [2]) amounted to 0.04 µg/mL (≈ 0.0906 µM); with HSV-1 (setting [3]), 3.9 µg/mL (≈ 8.83 µM); in assay [1] it was 4.5 µg/mL (≈ 10.2 µM).

For the compound `CC(NC(=S)Nc1ccc(NC(=O)c2ccccc2F)c(Cl)c1)c1ccc(C#N)cc1` (stereo not shown) [Example 1039, N-(2-Chloro-4-{3-[1-(4-cyano-phenyl)-ethyl]-thioureido}-phenyl)-2-fluoro-benzamide], the figures for the IC50 (in the assay with VZV strain Ellen (setting [2]); with HSV-1 (setting [3]); in assay [1]) were 0.25 µg/mL (≈ 0.552 µM), 7.2 µg/mL (≈ 15.9 µM) and 1.3 µg/mL (≈ 2.87 µM), respectively.

As to `CC(NC(=S)Nc1ccc(NC(=O)c2ccccc2F)c(N(C)C)c1)c1ccc(F)cc1` (stereo not shown) [Example 1049, N-(2-Dimethylamino-4-{3-[1-(4-fluoro-phenyl)-ethyl]-thioureido}-phenyl)-2-fluoro-benzamide], the IC50 in the assay on VZV strain Ellen (setting [2]) was determined as 0.07 µg/mL (≈ 0.154 µM); in the assay on HSV-1 (setting [3]), 8 µg/mL (≈ 17.6 µM); in assay [1], 4.5 µg/mL (≈ 9.9 µM).

With `COc1cc(OC)c(NC(=S)Nc2ccc(NC(=O)c3ccccc3F)cc2C#N)cc1Cl` [Example 381, N-{4-[3-(5-Chloro-2,4-dimethoxy-phenyl)-thioureido]-3-cyano-phenyl}-2-fluoro-benzamide], in the assay on VZV strain Ellen, the inhibition at 10 µg/mL is 13%. The IC50 (with VZV strain Ellen (setting [2]); with HSV-1 (setting [3]); in assay [1]) was above 10 µg/mL in each case.

Regarding `COc1cc(OC)c(NC(=S)Nc2c(Cl)cc(NC(=O)c3ccccc3F)cc2Cl)cc1Cl` [Example 1026, N-{3,5-Dichloro-4-[3-(5-chloro-2,4-dimethoxy-phenyl)-thioureido]-phenyl}-2-fluoro-benzamide], the results for the IC50 (with VZV strain Ellen (setting [2]); with HSV-1 (setting [3]); in assay [1]) were above 10 µg/mL, 0.15 µg/mL (≈ 0.284 µM) and above 10 µg/mL, respectively.

With `CC(NC(=S)Nc1ccc(NC(=O)c2cc3ccccc3o2)c(C#N)c1)c1ccc(F)cc1` (stereo not shown) [Example 1070, Benzofuran-2-carboxylic acid (2-cyano-4-{3-[1-(4-fluoro-phenyl)-ethyl]-thioureido}-phenyl)-amide], the IC50 was 0.2 µg/mL (≈ 0.436 µM) in the assay with VZV strain Ellen (setting [2]), 4.1 µg/mL (≈ 8.94 µM) in the assay with HSV-1 (setting [3]) and 2 µg/mL (≈ 4.36 µM) in assay [1].

As for `CC(NC(=S)Nc1cc(Br)c(NC(=O)c2ccccc2F)c(Br)c1)c1ccc(F)cc1` (stereo not shown) [Example 1033, N-(2,6-Dibromo-4-{3-[1-(4-fluoro-phenyl)-ethyl]-thioureido}-phenyl)-2-fluoro-benzamide], the figures for the IC50 (in the assay with VZV strain Ellen (setting [2]); with HSV-1 (setting [3]); in assay [1]) were 0.039 µg/mL (≈ 0.0685 µM), 7 µg/mL (≈ 12.3 µM) and 3.8 µg/mL (≈ 6.68 µM), respectively.

Consider `CC(NC(=S)Nc1ccc(NC(=O)c2ccccc2F)c(C(=O)c2ccccc2)c1)c1ccc(F)cc1` (stereo not shown) [Example 1044, N-(2-Benzoyl-4-{3-[1-(4-fluoro-phenyl)-ethyl]-thioureido}-phenyl)-2-fluoro-benzamide], for which the IC50 in the assay with VZV strain Ellen (setting [2]) was 3.3 µg/mL (≈ 6.4 µM); in the assay with HSV-1 (setting [3]), above 10 µg/mL; in assay [1] it was 1.8 µg/mL (≈ 3.49 µM).
